The record followed here is BindingDB's records for doi:10.1124/jpet.103.053975 (National Institute On Drug Abuse, 2003).

Where “and” joins values, the source holds several entries; their conditions need not be identical. Equal entries are not always repeated.

For assay [1], the target named is Sodium-dependent noradrenaline transporter (Homo sapiens, UniProt P23975).
Assay [2] has as its target 5-hydroxytryptamine receptor 7 (Homo sapiens, UniProt P34969).
For assay [3], the target named is T1, Alpha-2A adrenergic receptor (Homo sapiens, UniProt P08913).
T1 sequence (P08913 whole entry): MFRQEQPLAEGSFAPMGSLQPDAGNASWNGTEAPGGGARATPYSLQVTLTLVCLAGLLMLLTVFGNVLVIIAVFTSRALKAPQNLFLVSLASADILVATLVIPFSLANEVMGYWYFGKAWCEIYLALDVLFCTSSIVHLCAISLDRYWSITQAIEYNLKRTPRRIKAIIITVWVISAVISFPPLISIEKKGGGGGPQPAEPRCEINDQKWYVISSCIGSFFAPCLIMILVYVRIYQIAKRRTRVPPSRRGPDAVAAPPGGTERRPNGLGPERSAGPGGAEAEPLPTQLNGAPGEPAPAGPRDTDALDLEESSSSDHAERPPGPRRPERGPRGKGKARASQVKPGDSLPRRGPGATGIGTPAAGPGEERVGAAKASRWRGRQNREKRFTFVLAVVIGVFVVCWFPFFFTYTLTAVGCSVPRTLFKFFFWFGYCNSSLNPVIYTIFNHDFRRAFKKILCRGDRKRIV

For assay [4], the target named is T2, Alpha-2C adrenergic receptor (Homo sapiens, UniProt P18825).
T2 sequence (P18825 whole entry): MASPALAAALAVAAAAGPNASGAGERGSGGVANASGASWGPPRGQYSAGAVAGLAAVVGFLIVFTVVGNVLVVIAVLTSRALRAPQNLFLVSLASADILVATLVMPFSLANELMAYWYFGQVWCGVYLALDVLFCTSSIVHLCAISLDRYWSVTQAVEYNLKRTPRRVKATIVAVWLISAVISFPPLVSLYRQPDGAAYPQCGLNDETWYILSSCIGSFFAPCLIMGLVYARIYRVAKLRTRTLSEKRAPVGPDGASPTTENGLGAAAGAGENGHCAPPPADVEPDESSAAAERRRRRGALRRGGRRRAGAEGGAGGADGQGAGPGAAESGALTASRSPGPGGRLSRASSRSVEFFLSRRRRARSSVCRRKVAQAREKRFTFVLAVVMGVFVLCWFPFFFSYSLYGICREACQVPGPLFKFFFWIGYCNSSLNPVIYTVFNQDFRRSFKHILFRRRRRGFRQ

The target of assay [5] is Sodium-dependent serotonin transporter (Homo sapiens, UniProt P31645).
Sequence of Sodium-dependent serotonin transporter (P31645 whole entry): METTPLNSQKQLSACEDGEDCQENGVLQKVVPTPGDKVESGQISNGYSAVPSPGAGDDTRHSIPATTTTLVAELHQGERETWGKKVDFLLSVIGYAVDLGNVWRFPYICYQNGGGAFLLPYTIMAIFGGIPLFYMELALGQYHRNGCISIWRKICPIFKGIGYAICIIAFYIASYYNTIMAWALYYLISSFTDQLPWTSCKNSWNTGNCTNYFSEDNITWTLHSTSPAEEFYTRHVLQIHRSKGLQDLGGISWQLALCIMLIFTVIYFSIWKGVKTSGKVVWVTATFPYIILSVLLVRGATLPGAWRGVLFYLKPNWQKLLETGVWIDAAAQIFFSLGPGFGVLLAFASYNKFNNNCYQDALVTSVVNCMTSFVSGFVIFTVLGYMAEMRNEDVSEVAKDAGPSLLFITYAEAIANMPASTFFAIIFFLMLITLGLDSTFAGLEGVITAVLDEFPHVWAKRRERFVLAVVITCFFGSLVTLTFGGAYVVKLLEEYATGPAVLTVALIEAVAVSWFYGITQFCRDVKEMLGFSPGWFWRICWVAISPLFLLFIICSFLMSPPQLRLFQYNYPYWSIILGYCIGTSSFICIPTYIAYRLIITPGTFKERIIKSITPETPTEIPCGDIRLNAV

Sequence of Sodium-dependent noradrenaline transporter (P23975 whole entry): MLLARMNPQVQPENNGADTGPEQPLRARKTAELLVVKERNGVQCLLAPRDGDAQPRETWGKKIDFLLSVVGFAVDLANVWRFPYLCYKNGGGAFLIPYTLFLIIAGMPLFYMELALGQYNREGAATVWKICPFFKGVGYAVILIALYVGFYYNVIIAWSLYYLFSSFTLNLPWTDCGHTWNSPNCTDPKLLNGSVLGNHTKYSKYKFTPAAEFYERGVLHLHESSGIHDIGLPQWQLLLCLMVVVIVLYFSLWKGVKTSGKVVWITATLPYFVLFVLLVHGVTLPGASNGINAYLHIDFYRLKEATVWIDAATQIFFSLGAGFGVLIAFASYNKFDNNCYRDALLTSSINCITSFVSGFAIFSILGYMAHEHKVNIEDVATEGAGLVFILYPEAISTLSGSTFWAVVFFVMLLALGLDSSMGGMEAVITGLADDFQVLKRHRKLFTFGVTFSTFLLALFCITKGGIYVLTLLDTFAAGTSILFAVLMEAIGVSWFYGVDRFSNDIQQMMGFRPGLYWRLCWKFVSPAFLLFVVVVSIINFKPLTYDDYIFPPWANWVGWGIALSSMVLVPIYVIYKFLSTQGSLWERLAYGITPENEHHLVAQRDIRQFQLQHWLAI
Sequence of 5-hydroxytryptamine receptor 7 (P34969 whole entry): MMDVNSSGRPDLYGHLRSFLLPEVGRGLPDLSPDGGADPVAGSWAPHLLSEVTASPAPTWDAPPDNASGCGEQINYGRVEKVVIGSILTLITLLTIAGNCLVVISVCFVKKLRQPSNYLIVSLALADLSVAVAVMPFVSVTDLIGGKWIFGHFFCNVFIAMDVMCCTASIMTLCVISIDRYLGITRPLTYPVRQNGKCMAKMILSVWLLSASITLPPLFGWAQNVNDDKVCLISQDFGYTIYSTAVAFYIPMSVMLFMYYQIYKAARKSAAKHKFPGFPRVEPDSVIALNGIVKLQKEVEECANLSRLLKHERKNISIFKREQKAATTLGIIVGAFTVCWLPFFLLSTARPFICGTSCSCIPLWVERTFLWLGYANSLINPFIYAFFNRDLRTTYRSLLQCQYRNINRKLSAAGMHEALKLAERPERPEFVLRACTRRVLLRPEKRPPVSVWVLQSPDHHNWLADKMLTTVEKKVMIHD

Usually Ki stands for a measure of affinity in units of concentration, obtained from inhibition or displacement. Low readings indicate a stronger hold on the target, high ones a looser hold on the target. Regarding `CC(N)C(O)c1ccccc1` [(1R, 2S)-2-Amino-1-phenyl-propan-1-ol], the Ki was 137 nM and 42.1 nM and 15 nM and 30.1 nM in assay [1]; 7000 nM in assay [2]; 3020 nM and 1330 nM and 2610 nM and 2600 nM in assay [3].

In the case of `CNC(C)C(O)c1ccccc1` (configuration not stated) [CAS_24221-86-1], the Ki was 708 nM and 1220 nM in assay [4]; 2010 nM in assay [3].

As for `CC(N)C(=O)c1ccccc1` (configuration not stated) [CAS_62258], the Ki in assay [5] turned out to be 2370 nM; in assay [1], 12.4 nM; in assay [2], 2700 nM; in assay [4], 765 nM; in assay [3] it was 6810 nM.

`CN[C@@H](C)Cc1ccccc1` [METHAMPHETAMINE (+)]: the results for the Ki in assay [5] and in assay [1] were 736 nM and 12.3 nM, respectively.

For `CNC(C)C(=O)c1ccccc1` (configuration not stated) [NSC_1576], the Ki in assay [5] turned out to be 1770 nM; in assay [1], 13.1 nM; in assay [2], 1000 nM; in assay [4], 605 nM; in assay [3] it was 9020 nM.
